The source of these data is patent US8946197B2, “Transglutaminase TG2 inhibitors, pharmaceutical compositions, and methods of use thereof” (CHDI Foundation, Inc., priority 2009, dated 2015).

“And” between values parts separate entries of the source, which are not always exact repeats. Equal values may be shown once.

The target in the assay is T1, human TG2 (Homo sapiens, UniProt P21980).
T1 sequence (P21980 1-687): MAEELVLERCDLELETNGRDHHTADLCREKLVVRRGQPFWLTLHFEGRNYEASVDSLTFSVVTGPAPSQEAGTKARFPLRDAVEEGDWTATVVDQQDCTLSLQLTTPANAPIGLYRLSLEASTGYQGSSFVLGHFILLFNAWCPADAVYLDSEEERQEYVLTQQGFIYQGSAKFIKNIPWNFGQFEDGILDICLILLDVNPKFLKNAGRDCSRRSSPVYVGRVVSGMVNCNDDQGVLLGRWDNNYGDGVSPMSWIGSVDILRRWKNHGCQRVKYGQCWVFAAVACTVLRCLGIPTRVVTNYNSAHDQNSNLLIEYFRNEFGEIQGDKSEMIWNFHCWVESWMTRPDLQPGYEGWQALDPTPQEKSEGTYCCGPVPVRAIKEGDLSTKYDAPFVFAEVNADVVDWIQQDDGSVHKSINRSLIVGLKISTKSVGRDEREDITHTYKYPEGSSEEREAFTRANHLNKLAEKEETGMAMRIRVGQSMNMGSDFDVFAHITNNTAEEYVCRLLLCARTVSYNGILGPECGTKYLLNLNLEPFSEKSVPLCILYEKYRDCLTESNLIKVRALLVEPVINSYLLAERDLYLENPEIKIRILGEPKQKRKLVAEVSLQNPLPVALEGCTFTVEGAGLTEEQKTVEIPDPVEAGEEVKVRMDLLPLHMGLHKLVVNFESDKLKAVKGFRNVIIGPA
Nature of the assay: fluorescent screening assay for human TG2. The assay is classed as biochemical. Particulars: 20 nM TG2, 8 μM N,N-dimethylated Casein, 16 μM KxD, pH 7.4, 37° C. The method, then: (§1) The fluorescent screening assay for human TG2 was performed as described herein: Assay conditions were 20 nM TG2, 8 μM N,N-dimethylated Casein (NMC) and 16 μM K×D (used for all transglutaminase assays) in 25 mM Hepes, pH 7.4, 250 mM NaCl, 2 mM MgCl2, 0.5 mM CaCl2, 0.2 mM DTT, 0.05% Pluronic F-127 at 37° C. A time point was taken with a microplate reader (Safire or Ultra, Tecan; ex: 350 nm, em: 535 nm) every 3 minutes for up to 2 hours and the initial linear reaction progress was used to determine the reaction velocity as a measure for enzyme activity. Assay conditions were identical for human TG6 and similar for human TG1 and mouse TG2 apart from enzyme concentration (mTG2 at 5 nM; TG1 at 10 nM) and CaCl2 concentration (0.2 mM for mTG2; 0.05 mM for TG1). Factor XIIIa was activated using 0.1 μg/μl thrombin (Sigma) in 35 mM Tris pH 8.0 for 20 min at 30° C. and the transamidation reaction was performed with 20 nM Factor XIIIa in 50 mM Tris pH 8.0, 1.25 mM CaCl2, 0.05% Pluronic, 0.2 mM DTT. TG3 was activated with 0.02 μg/μl thrombin under the same conditions as Factor XIIIa and assay conditions were 10 nM TG3 in 50 mM Hepes, pH 8, 20 mM CaCl2, 0.2 mM DTT, 0.05% Pluronic F-127.
as §1, with “A” for “The”
By IC50 is commonly meant the concentration that gives 50% inhibition. The compound `C=CC(=O)Nc1ccc(S(=O)(=O)N(Cc2ccccc2)Cc2ccc(Cl)cc2)cc1` [N-{4-[Benzyl-(4-chloro-benzyl)-sulfamoyl]-phenyl}-acrylamide] returned an IC50 of 1000 to 25000 nM.
Under `C=CC(=O)Nc1ccc(S(=O)(=O)N2CCN(c3nc4ccccc4s3)CC2)cc1` [N-[4-(4-Benzothiazol-2-yl-piperazine-1-sulfonyl)-phenyl]-acrylamide] stands < 100 nM and 100 to 1000 nM; under `C=CC(=O)Nc1ccc(S(=O)(=O)N2CCN(C(=O)OCc3ccccc3)C(CC(=O)OC)C2)cc1` (stereo not drawn) [4-(4-Acryloylamino-benzenesulfonyl)-2-methoxycarbonylmethyl-piperazine-1-carboxylic acid benzyl ester], 100 to 1000 nM and < 100 nM; under `C=CC(=O)Nc1ccc(S(=O)(=O)N2CCC(N)CC2)cc1` [N-[4-(4-Amino-piperidine-1-sulfonyl)-phenyl]-acrylamide], 1000 to 25000 nM.
With `C=CC(=O)Nc1ccc(S(=O)(=O)N2CCN(C(=O)OCc3ccccc3)CC2)cc1F` [4-(4-Acryloylamino-3-fluoro-benzenesulfonyl)-piperazine-1-carboxylic acid benzyl ester] the figure was 1000 to 25000 nM; with `C=CC(=O)Nc1ccc(S(=O)(=O)N2CCN(C(=O)OC(C)(C)C)[C@@H](C(C)C)C2)cc1` [4-(4-Acryloylamino-benzenesulfonyl)-2-isopropyl-piperazine-1-carboxylic acid tert-butyl ester], 100 to 1000 nM and < 100 nM; with `C=CC(=O)Nc1ccc(S(=O)(=O)N2CCN(C(=O)NCc3ccccc3)CC2)cc1` [4-(4-Acryloylamino-benzenesulfonyl)-piperazine-1-carboxylic acid benzylamide], 100 to 1000 nM and < 100 nM.
Under `C=CC(=O)Nc1ccc(S(=O)(=O)N2CCN(C(=O)OCC)CC2)cc1` [4-(4-Acryloylamino-benzenesulfonyl)-piperazine-1-carboxylic acid ethyl ester] stands 100 to 1000 nM and < 100 nM; under `C=CC(=O)Nc1ccc(S(=O)(=O)N2CCN(c3ccc(C)cn3)CC2)cc1` [N-{4-[4-(5-Methyl-pyridin-2-yl)-piperazine-1-sulfonyl]-phenyl}-acrylamide], < 100 nM and 100 to 1000 nM.
With `C=CC(=O)Nc1ccc(S(=O)(=O)N2CCN(C(=O)N3CCCC3)CC2)cc1` [N-{4-[4-(Pyrrolidine-1-carbonyl)-piperazine-1-sulfonyl]-phenyl}-acrylamide], the IC50 was 100 to 1000 nM and < 100 nM.
Under `C=CC(=O)Nc1ccc(S(=O)(=O)N2CCN(c3cccc(-c4ccccc4)c3)CC2)cc1` [N-[4-(4-Biphenyl-3-yl-piperazine-1-sulfonyl)-phenyl]-acrylamide] stands 1000 to 25000 nM; under `C=CC(=O)Nc1ccc(S(=O)(=O)N2CCN(c3cnccn3)CC2)cc1` [N-[4-(2,3,5,6-Tetrahydro-[1,2′]bipyrazinyl-4-sulfonyl)-phenyl]-acrylamide], < 100 nM and 100 to 1000 nM; under `C=CC(=O)Nc1ccc(S(=O)(=O)N2CCN(C(=O)C34CC5CC(CC(C5)C3)C4)CC2)cc1` [N-{4-[4-(Adamantane-1-carbonyl)-piperazine-1-sulfonyl]-phenyl}-acrylamide], 100 to 1000 nM and < 100 nM.
`C=CC(=O)Nc1ccc(S(=O)(=O)N2CCN(C(=O)Cc3ccc(Oc4ccccc4)cc3)CC2)cc1` [N-(4-{4-[2-(4-Phenoxy-phenyl)-acetyl]-piperazine-1-sulfonyl}-phenyl)-acrylamide]: the IC50 is 100 to 1000 nM and < 100 nM.
Under `C=CC(=O)Nc1ccc(S(=O)(=O)N2CCN(C(=O)OCc3ccccc3)C(CC(=O)NC3C4CC5CC(C4)CC3C5)C2)cc1` (stereo not drawn) [4-(4-Acryloylamino-benzenesulfonyl)-2-(adamantan-2-ylcarbamoylmethyl)-piperazine-1-carboxylic acid benzyl ester] stands 100 to 1000 nM and < 100 nM; under `C=CC(=O)Nc1ccc(S(=O)(=O)N2CCN(C(=O)N3CCCCC3)CC2)cc1` [N-{4-[4-(Piperidine-1-carbonyl)-piperazine-1-sulfonyl]-phenyl}-acrylamide], 100 to 1000 nM and < 100 nM.
`C=CC(=O)Nc1ccc(S(=O)(=O)N2CCNCC2)cc1` [N-[4-(piperazine-1-sulfonyl)-phenyl]acrylamide] returned an IC50 of 1000 to 25000 nM.
Take `C=CC(=O)Nc1ccc(S(=O)(=O)N2CCN(c3ccc4ccccc4c3)CC2)cc1` [N-[4-(4-Naphthalen-2-yl-piperazine-1-sulfonyl)-phenyl]-acrylamide]: the IC50 fell in the range of 1000 to 25000 nM.
On to `C=CC(=O)Nc1ccc(S(=O)(=O)N2CCc3cc(S(=O)(=O)N(C)C)ccc32)cc1` [N-[4-(5-Dimethylsulfamoyl-2,3-dihydro-indole-1-sulfonyl)-phenyl]-acrylamide], for which the IC50 was 100 to 1000 nM and < 100 nM.
Under `C/C=C\C(=O)Nc1ccc(S(=O)(=O)N2CCN(C(=O)OC(C)(C)C)CC2)cc1` [(Z)-tert-butyl 4-(4-but-2-enamidophenylsulfonyl)piperazine-1-carboxylate] stands 1000 to 25000 nM.
With `C=CC(=O)Nc1ccc(S(=O)(=O)N2CCC(C(=O)N(C)c3ccccc3)CC2)cc1` [1-(4-Acryloylamino-benzenesulfonyl)-piperidine-4-carboxylic acid methyl-phenyl-amide] the figure was < 100 nM and 100 to 1000 nM; with `C=CC(=O)Nc1ccc(S(=O)(=O)N2CCN(C(=O)N(C)C)CC2)cc1` [4-(4-Acryloylamino-benzenesulfonyl)-piperazine-1-carboxylic acid dimethylamide], 100 to 1000 nM and < 100 nM; with `C=CC(=O)Nc1ccc(S(=O)(=O)N2CCC(N(C)C(=O)OC(C)(C)C)CC2)cc1` [[1-(4-Acryloylamino-benzenesulfonyl)-piperidin-4-yl]-methyl-carbamic acid tert-butyl ester], 100 to 1000 nM and < 100 nM.
Under `C=CC(=O)Nc1ccc(S(=O)(=O)N(C)Cc2cccc(CN3CCCC3)c2)cc1` [N-{4-[Methyl-(3-pyrrolidin-1-ylmethyl-benzyl)-sulfamoyl]-phenyl}-acrylamide] stands 1000 to 25000 nM; under `C=CC(=O)Nc1ccc(S(=O)(=O)N(C)Cc2ccc(CN3CCN(C)CC3)cc2)cc1` [N-(4-{Methyl-[4-(4-methyl-piperazin-1-ylmethyl)-benzyl]-sulfamoyl}-phenyl)-acrylamide], 1000 to 25000 nM; under `C=CC(=O)Nc1ccc(S(=O)(=O)N2CCN(C(=O)N3CCC4CCCCC4C3)CC2)cc1` (stereo not drawn) [N-{4-[4-(Octahydro-isoquinoline-2-carbonyl)-piperazine-1-sulfonyl]-phenyl}-acrylamide], 100 to 1000 nM and < 100 nM.
With `C=CC(=O)Nc1ccc(S(=O)(=O)N2CCN(C(=O)CCc3ccccn3)CC2)cc1` [N-{4-[4-(3-Pyridin-2-yl-propionyl)-piperazine-1-sulfonyl]-phenyl}-acrylamide], the IC50 is 100 to 1000 nM and < 100 nM.
On to `C=CC(=O)Nc1ccc(S(=O)(=O)N2CCN(C(=O)OCc3cccc(Cl)c3)CC2)cc1` [4-(4-Acryloylamino-benzenesulfonyl)-piperazine-1-carboxylic acid 3-chloro-benzyl ester], for which the IC50 was 100 to 1000 nM and < 100 nM.
Under `C=C(F)C(=O)Nc1ccc(S(=O)(=O)N2CCN(C(=O)OC(C)(C)C)CC2)cc1` [4-[4-(2-Fluoro-acryloylamino)-benzenesulfonyl]-piperazine-1-carboxylic acid tert-butyl ester] stands 1000 to 25000 nM; under `C=CC(=O)Nc1ccc(S(=O)(=O)N2CCN(C(=O)OCc3ccccc3Cl)CC2)cc1` [4-(4-Acryloylamino-benzenesulfonyl)-piperazine-1-carboxylic acid 2-chloro-benzyl ester], 100 to 1000 nM and < 100 nM.
